As a reminder, the Cmax is the highest concentration seen after dosing. What is called half-life is the time in which the quantity being followed falls by half.

This is an account of results in patent US10954549B2, “Detection and classification of an anticoagulant using a clotting assay” (Haemonetics Corporation, priority 2014, dated 2021).

Data set [1] relates to citrated whole blood. Kind of data set: TEG Kaolin test of blood spiked with anticoagulant. The data set is classed as biochemical, human. Conditions: for R value versus control reference range: reference range about 5 to about 10 minutes; for MA values versus control: all studied concentrations; for R, K, α, and MRTG parameters, statistical significance versus control: three concentrations per drug, Example 1; for MRTG / TMRTG: Kaolin. An excerpt: (§1) The TEG clotting assay was used to determine if low, normal, and high doses of dabigatran, rivaroxaban, and apixaban could be detected in blood spiked with these compounds. Three oral anticoagulants (OAC), namely dabigatran, rivaroxaban, and apixaban, were spiked into blood obtained from 14 healthy volunteer human donors. For each OAC tested, citrated blood from three donors was spiked with three different concentrations of the active drug (i.e., the compound). The spiked blood samples and control samples spiked with diluent were tested with the TEG® 5000 Thrombelastograph® Hemostasis Analyzer (Haemonetics Corporation, Braintree, Mass., USA) using the Kaolin and RapidTEG® reagents (Haemonetics). Each sample was run in triplicate. All samples were tested with and without ecarin (purchased from Enzyme Research Laboratories, South Bend, IN). This study was IRB approved and all donors were over 18 and signed informed consent forms.
Dabigatran stock was prepared from the active dabigatran moiety (Alsachim, France) by dissolution in 0.1M HCl and further dilution in 1:1 DMSO:H20. […] Tubes of citrated blood were spiked with this dabigatran stock to create final concentrations of 500, 200, and 50 ng/mL of citrated whole blood.
Rivaroxaban stock was prepared by agitation of a 20 mg Xarelto tablet (Jannsen, Titusville, N.J.) in a 1:1 DMSO: H20 solution, which was diluted to a final concentration of 20 ng/uL rivaroxaban in 1:1 DMSO:H20. Tubes of citrated blood were spiked with this rivaroxaban stock to create final concentrations of 500, 89, and 22 ng/mL in citrated whole blood. […] Apixaban stock was prepared in a similar manner from a 2.5 mg Eliquis tablet (Bristol-Myers Squibb, New York, N.Y.), with final concentrations of 1000, 500, and 250 ng/mL in whole blood. Apixaban is approved for prevention of VTE in elective hip or knee replacement surgery (2.5 mg BID) and for prevention of stroke and systemic embolism in patients with non-valvular AF (5 mg BID) (see Bristol-Myers SP, EEIG. apixaban summary of product characteristics). […] Control samples, prepared for each tested drug, included a solvent control containing only citrated blood and the diluent used to dilute the drug stock, and an unadulterated citrate blood tube.
Testing was performed on TEG-5000 analyzers (Haemonetics Corp., Braintree, Mass., USA) using Kaolin vials, 0.2M CaCl2, RapidTEG (rTEG) vials, diluent water, and disposable clear cups and pins provided by the manufacturer (Haemonetics, Braintree, Mass.), and ecarin (Enzyme Research Laboratories, South Bend, Ind.). All testing was performed in triplicate at each dose, and allowed to continue until the MA (maximum amplitude) parameter defined. The various components of the TEG tracing are depicted in FIG. 3A. The Kaolin test generates an R parameter, which is measured in minutes, and is the time elapsed from the initiation of the test until the point where the onset of clotting provides enough resistance to produce a 2 mm amplitude reading on the TEG tracing. This parameter represents the initiation phase of coagulation related to the function of enzymatic clotting factors. The R parameter has a normal range of 5 to 10 min for kaolin. A prolonged R time indicates slower clot formation. K is a measurement of the time interval from the split point to the point where fibrin cross-linking provides enough clot resistance to produce a 20 mm amplitude reading. The α angle is the angle formed by the slope of a tangent line traced from the R to the K time and a central line measured in degrees. K time and the α angle denote the rate at which the clot strengthens, and is representative of thrombin's cleaving of the available fibrinogen into fibrin. The MA indicates the point at which clot strength reaches its maximum amplitude, measured in millimeters on the TEG tracing, and reflects the end result of maximal platelet-fibrin interaction via the GPIIb-IIIa receptors (see Khurana S et al., J Lab Clin Med. 130:401-411, 1997). […]

Data set [2] deals with citrated whole blood. Briefly: TEG kaolin with ecarin test of spiked blood. The data set is classed as biochemical, human. Conditions: for R value with ecarin versus reference range: Example 2, three dosage levels, kaolin reference range about 5 to about 10 minutes; for R time in the presence versus absence of ecarin: FIGS. 8A-8C; for MA values with ecarin relative to samples run without ecarin: kaolin test; for R, K and TMRTG values on addition of ecarin to the kaolin test / α and MRTG values on addition of ecarin to the kaolin test: treated and control groups.
Source text: as §1
For the kaolin test, 1 mL of citrated blood sample was mixed with kaolin and 340 microliters (μL) of this blood was added to a TEG cup containing 20 μL of 0.2M CaCl2 for recalcification. The kaolin with ecarin test was performed in a similar fashion, using 20 μL of an ecarin/CaCl2 solution (0.16 M CaCl2; 19 EU/mL ecarin).
Ecarin is derived from the venom of the saw-scaled viper, Echis carinatus. Ecarin activates prothrombin (the precursor of thrombin—see FIG. 5). This activation of prothrombin by ecarin produces meizothrombin, a prothrombin-thrombin intermediate which has a low level of procoagulant enzymatic activity.
Healthy human volunteers (who are not being administered any anticoagulant), donated blood. Following donation, the blood collected from the donors (which was added to citrate to prevent clotting) was divided into portions, and portions of the blood were spiked with either nothing, dabigatran, or rivaroxaban. The portions were then assayed using thromboelastography, including assays performed in the presence of ecarin.

In data set [3] the test system is citrated whole blood. Briefly: rTEG with ecarin test of spiked blood. It is filed as biochemical, human.
Source text: as §1
340 μL of the citrated blood sample was added to the cup with these two reagents, and the contents of the cup were mixed 3 times by drawing the contents of the cup up into the pipette and redispensing it into the cup. The test was started immediately after mixing and allowed to run until the MA parameter had defined. The rTEG with ecarin test was performed as the rTEG test above, using 20 μL of an ecarin/CaCl2 solution (0.16M CaCl2; 19EU/mL ecarin).

Data set [4] deals with blood from healthy volunteers. Briefly: Thromboelastography R time of spiked blood in the presence of the FXa reagent. It is filed as biochemical, human. Particulars: in vitro spiking, increasing concentrations. The method, then:
Blood from healthy volunteers known not to be taking any oral anticoagulant and without any other significant health issues are analyzed using the FXa or the Ecarin reagent in a TEG® hemostasis analyzer. The FXa reagent (i.e., the Factor Xa reagent) is used to detect the presence (or absence) of an anticoagulant in the blood component being tested. In absence of any oral anticoagulant, the FXa reagent will accelerate the clotting process and result in a very short R-time. In presence of direct thrombin inhibitors and/or anti-Factor Xa anticoagulant(s), the process is slowed down and will cause elongation of the R-time. This difference in R-time is utilized to detect the presence of the oral anticoagulant. The R-time generated from multiple donors was used to construct a reference range. Blood was spiked with either direct thrombin inhibitors or anti-Xa(s) at different concentrations and analyzed using the FXa reagent or the Ecarin reagent. The drug concentrations chosen represent the published therapeutic ranges for these two classes of drugs. This assay was repeated in multiple donors to account for possible donor variations.

The conditions of data set [5]: cited from earlier work.
Where [6] appears, read: blood spiked with 50 ng/ml dabigatran.
Where [7] appears, read: blood spiked with 200 ng/ml dabigatran.
Where [8] appears, read: blood spiked with 500 ng/ml dabigatran.

Consider `O=C(NC[C@H]1CN(c2ccc(N3CCOCC3=O)cc2)C(=O)O1)c1ccc(Cl)s1` [rivaroxaban, Rivaroxaban], for which the “R value versus control reference range” value in the data set on citrated whole blood [1] (500 ng/ml (highest dosage)) is listed as “outside of the normal (i.e., control) reference range”. For the same compound, in the data set on citrated whole blood [1], the “MA values versus control” value was “did not change”; the “R, K, α, and MRTG parameters, statistical significance versus control” value is reported as “only achieved statistical significance for the higher concentrations”. Moreover, in the data set on citrated whole blood [1] (highest concentration tested), the “R time versus non-spiked blood sample” value is reported as “significantly higher”. Moreover, in the data set with citrated whole blood [1] (lower two doses (22 and 89 ng/ml)), the “R value versus control reference range” value is “within the control reference range”. In addition, in the data set on citrated whole blood [2], the “R value with ecarin versus reference range” value is “dramatically shortened and all three dosage levels fall outside of the control reference range”; the “R time in the presence versus absence of ecarin” value is “equivalent and significant shortening of R time”; the “MA values with ecarin relative to samples run without ecarin” value was “did not change”; the “R, K and TMRTG values on addition of ecarin to the kaolin test” value is given as “significant decrease”. The “α and MRTG values on addition of ecarin to the kaolin test” value in the data set with citrated whole blood [2] is “significant increase”. Besides, in the data set with citrated whole blood [3], the “TEG-ACT times on addition of ecarin to the RapidTEG test” value is listed as “significantly decreases” and the “TMRTG times on addition of ecarin to the RapidTEG test” value is listed as “significantly decreases”. For the same compound, the “RapidTEG α angle when ecarin was added” value in the data set with citrated whole blood [3] (any of the studied concentrations) is “did not change”. Moreover, the “RapidTEG K values when ecarin was added” value with citrated whole blood [3] (middle concentration (89 ng/mL)) is on record as “significantly decreased”. Also, the “R-time compared to the reference range, FXa reagent” value in data set [4] was “dose dependent elongation of the R-time”. Moreover, the half-lives compared result in data set [5] (in vivo) is “shorter half-lives than dabigatran”. Moreover, the Cmax in data set [5] (oral dose of 10 mg) is on record as 141 ng/mL.
For dabigatran, the “R value versus control reference range” value in the data set on citrated whole blood [1] (50 ng/ml (lowest dosage)) is listed as “outside of the normal (i.e., control) reference range”. Besides, in the data set with citrated whole blood [1] (50, 200, 500 ng/ml), the “R value, dose dependence” value was “increases the R value of the tested blood components in a dose dependent manner”. In addition, the “R, α, and TMRTG parameters between concentrations” value in the data set with citrated whole blood [1] (500, 200, 50 ng/mL) is recorded as “significantly different between all concentrations”. For the same compound, in the data set with citrated whole blood [1] (all doses), the “R time versus non-spiked blood sample” value is on record as “significantly higher”. Also, in the data set with citrated whole blood [1], the “MA values versus control” value is reported as “did not change”; the “R, K, α, and MRTG parameters, statistical significance versus control” value is “able to detect the presence of all tested concentrations”. In the data set on citrated whole blood [1] (setting [6]), this compound showed an MRTG of 13 mm/min and a TMRTG of 13 min. In the data set with citrated whole blood [1] (setting [7]), this compound displayed an MRTG of 12 mm/min and a TMRTG of 18 min. In the data set on citrated whole blood [1] (setting [8]), this compound returned an MRTG of 7 mm/min and a TMRTG of 22 min. For the same compound, the “R, kaolin test with ecarin” value with citrated whole blood [2] (500, 200, 50 ng/mL) was “only a dose related decrease of the R”. For the same compound, in the data set with citrated whole blood [2], the “R value with ecarin versus reference range” value was “shortened and approaches the normal reference range”; the “R time in the presence versus absence of ecarin” value is “concentration dependent decrease in R time”; the “MA values with ecarin relative to samples run without ecarin” value is recorded as “did not change”; the “R, K and TMRTG values on addition of ecarin to the kaolin test” value is “significant decrease”. For the same compound, the “α and MRTG values on addition of ecarin to the kaolin test” value with citrated whole blood [2] was “significant increase”. For the same compound, in the data set on citrated whole blood [3], the “TEG-ACT times on addition of ecarin to the RapidTEG test” value is reported as “significantly decreases” and the “TMRTG times on addition of ecarin to the RapidTEG test” value is on record as “significantly decreases”. The “MA value on addition of ecarin to the RapidTEG test” value in the data set with citrated whole blood [3] (200 ng/mL, still within normal range) was “significantly decreased”. For the same compound, the “RapidTEG α angle when ecarin was added” value with citrated whole blood [3] (lowest concentrations (200 ng/mL, 50 ng/mL)) is “decrease of the angle value”. Further, in the data set on citrated whole blood [3] (middle concentration (200 ng/mL)), the “RapidTEG K values when ecarin was added” value is “increased”. Moreover, the “R-time compared to the reference range, FXa reagent” value in data set [4] was “dose dependent elongation of the R-time”. Further, the maximum plasma concentration in data set [5] (150 mg oral dose) was 110 ng/mL. Also, the half-life in data set [5] (lengthened in patients with renal dysfunction) was 12 to 17 h.
